Measurements reported in US20250145665A1, “MACROCYCLIC PEPTIDES USEFUL AS MODULATORS OF TNF ALPHA” (Bristol-Myers Squibb Company, priority 2023, published 2025).
Starred links: 1 amine or outer side, 2 acyl side, 3 side chain; linkers in the order of their positions; H or OH if unused. Positions of bridges follow the written chain, without caps; N, C: chain ends. Non-standard residues stand in square brackets, D forms with d. Residues, ends and D or L forms follow the SMILES beside them. Bip(4'-COOH) = N[C@@H](Cc1ccc(-c2ccc(C(=O)O)cc2)cc1)C(=O)O; Bip(4'-NHAc) = CC(=O)Nc1ccc(-c2ccc(C[C@H](N)C(=O)O)cc2)cc1; Ala(morpholin-4-yl) = N[C@@H](CN1CCOCC1)C(=O)O; X85 = N=C(N)c1cccc(C[C@H](N[*:1])C(=O)[*:2])c1; Bip = N[C@@H](Cc1ccc(-c2ccccc2)cc1)C(=O)O; Ala(2-furyl) = N[C@@H](Cc1ccco1)C(=O)O; 2Pal = N[C@@H](Cc1ccccn1)C(=O)O; 2Thi = N[C@@H](Cc1cccs1)C(=O)O; Tle = CC(C)(C)[C@H](N)C(=O)O; Aze = O=C(O)[C@@H]1CCN1; Sar = CNCC(=O)O

The compounds below were run against TNFα (Homo sapiens, UniProt P01375) (assay: TNF-Induced HEK-Blue Assay). Conditions: HEK-Blue-CD40L cells, NF-kB-driven secreted alkaline phosphatase reporter; TNFα 0.5 ng/ml; 18 h; read-out: TNF induced HEK-Blue assay IC50 value.
Type: cell-based

TNFα, sequence (P01375 77-233 limits assumed): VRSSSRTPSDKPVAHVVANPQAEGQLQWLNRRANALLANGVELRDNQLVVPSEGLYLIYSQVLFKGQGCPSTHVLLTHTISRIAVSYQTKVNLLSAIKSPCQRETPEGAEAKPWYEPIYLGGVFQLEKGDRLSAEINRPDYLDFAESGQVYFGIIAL

| SMILES | IC50 |
| --- | --- |
| CC[C@H](C)[C@@H]1NC(=O)[C@@H]2CCCN2C(=O)[C@H]([C@@H](C)CC)NC(=O)[C@@H](CCCNC(=N)N)NC(=O)[C@H](CC(=O)O)NC(=O)[C@H](Cc2ccc(O)cc2)NC(=O)CN(C)C(=O)[C@H](Cc2ccc(-c3ccc(NC(C)=O)cc3)cc2)NC(=O)[C@H](Cc2ccc(-c3ccccc3)cc2)NC(=O)[C@H](CN2CCOCC2)NC(=O)CSC[C@@H](C(=O)NCC(N)=O)NC(=O)[C@H](CC(C)C)NC(=O)[C@H](Cc2cccs2)NC1=O [Example 293] ({CH2CO}-[Ala(morpholin-4-yl)][Bip][Bip(4'-NHAc)][Sar]YD[dR]IPI[2Thi]LCG-NH2; thioether N-13) | < 50 nM |
| CC[C@H](C)[C@@H]1NC(=O)[C@@H]2CCN2C(=O)[C@H]([C@@H](C)CC)NC(=O)[C@@H](CCCNC(=N)N)NC(=O)[C@H](CC(=O)O)NC(=O)[C@H](Cc2ccc(O)cc2)NC(=O)CN(C)C(=O)[C@H](Cc2ccc(-c3ccc(NC(C)=O)cc3)cc2)NC(=O)[C@H](Cc2ccc(-c3ccccc3)cc2)NC(=O)[C@H](C(C)(C)C)NC(=O)CSC[C@@H](C(=O)NCC(N)=O)NC(=O)[C@H](CC(C)C)NC(=O)[C@H](Cc2ccc(O)cc2)NC1=O [Example 294] ({CH2CO}-[Tle][Bip][Bip(4'-NHAc)][Sar]YD[dR]I[Aze]IYLCG-NH2; thioether N-13) | < 50 nM |
| CC[C@H](C)[C@@H]1NC(=O)[C@@H]2CCCN2C(=O)[C@H]([C@@H](C)CC)NC(=O)[C@@H](CCCNC(=N)N)NC(=O)[C@H](CC(=O)O)NC(=O)[C@H](Cc2ccccc2)NC(=O)CN(C)C(=O)[C@H](Cc2ccc(-c3ccc(NC(C)=O)cc3)cc2)NC(=O)[C@H](Cc2ccc(-c3ccc(C(=O)O)cc3)cc2)NC(=O)[C@H](C(C)(C)C)NC(=O)CSC[C@@H](C(=O)NCC(N)=O)NC(=O)[C@H](CC(C)C)NC(=O)[C@H](Cc2cnc[nH]2)NC1=O [Example 295] ({CH2CO}-[Tle][Bip(4'-COOH)][Bip(4'-NHAc)][Sar]FD[dR]IPIHLCG-NH2; thioether N-13) | < 50 nM |

More lines, now with the values ahead:

| IC50 | SMILES |
| --- | --- |
| < 50 nM | CC[C@H](C)[C@@H]1NC(=O)[C@@H]2CCCN2C(=O)[C@H]([C@@H](C)CC)NC(=O)[C@@H](CCCNC(=N)N)NC(=O)[C@H](CC(=O)O)NC(=O)[C@H](Cc2ccc(O)cc2)NC(=O)CN(C)C(=O)[C@H](Cc2ccc(-c3ccc(NC(C)=O)cc3)cc2)NC(=O)[C@H](Cc2ccc(-c3ccccc3)cc2)NC(=O)[C@H](C(C)(C)C)NC(=O)CSC[C@@H](C(=O)NCC(N)=O)NC(=O)[C@H](CC(C)C)NC(=O)[C@H](Cc2ccccc2)NC1=O [Example 296] ({CH2CO}-[Tle][Bip][Bip(4'-NHAc)][Sar]YD[dR]IPIFLCG-NH2; thioether N-13) |
| < 50 nM | CC[C@H](C)[C@@H]1NC(=O)[C@@H]2CCCN2C(=O)[C@H]([C@@H](C)CC)NC(=O)[C@@H](CCCNC(=N)N)NC(=O)[C@H](CC(=O)O)NC(=O)[C@H](Cc2ccccn2)NC(=O)CN(C)C(=O)[C@H](Cc2ccc(-c3ccc(NC(C)=O)cc3)cc2)NC(=O)[C@H](Cc2ccc(-c3ccccc3)cc2)NC(=O)[C@H](C(C)(C)C)NC(=O)CSC[C@@H](C(=O)NCC(N)=O)NC(=O)[C@H](CC(C)C)NC(=O)[C@H](Cc2cccc(C(=N)N)c2)NC1=O [Example 297] ({CH2CO}-[Tle][Bip][Bip(4'-NHAc)][Sar][2Pal]D[dR]IPI[X85]LCG-NH2; thioether N-13) |
| 50 to 200 nM | CC[C@H](C)[C@@H]1NC(=O)[C@@H]2CCCN2C(=O)[C@H]([C@@H](C)CC)NC(=O)[C@@H](CCCNC(=N)N)NC(=O)[C@H](CC(=O)O)NC(=O)[C@H](Cc2ccco2)NC(=O)CN(C)C(=O)[C@H](Cc2ccc(-c3ccc(NC(C)=O)cc3)cc2)NC(=O)[C@H](Cc2ccc(-c3ccccc3)cc2)NC(=O)[C@H](C(C)(C)C)NC(=O)CSC[C@@H](C(=O)NCC(N)=O)NC(=O)[C@H](CC(C)C)NC(=O)[C@H](Cc2ccc(O)cc2)NC1=O [Example 298] ({CH2CO}-[Tle][Bip][Bip(4'-NHAc)][Sar][Ala(2-furyl)]D[dR]IPIYLCG-NH2; thioether N-13) |
